Test results published in patent US6717015B2 (priority 2002, dated 2004).
Read-outs that look alike come from different tables or passages of the source.

Legend:
[1] = Water uptake / hygroscopicity on storage at 40° C. and 75% relative humidity
[2] = Water uptake on exposure to air for 13 days

**Q.** What does the source list for `COc1ccc(C(CN(C)C)C2(O)CCCCC2)cc1` (racemic) [Example 4A, Venlafaxine Besylate Anhydrate]?
**A.** water content after storage (K. Fischer) ([1]; 3 days at 40° C. and 75% relative humidity): 4%; hygroscopicity ([1]; listed as Anhydrous (+/−)-venlafaxine besylate): hygroscopic

**Q.** For `COc1ccc(C(CN(C)C)C2(O)CCCCC2)cc1` (racemic) [venlafaxine besylate monohydrate], which “uptake of water after storage” value ([1]; 40° C., relative humidity 75%) is on record?
**A.** The value was “No uptake of water”.

**Q.** And the hygroscopicity ([1]; besylate monohydrate)?
**A.** The hygroscopicity was “substantially non-hygroscopic”.

**Q.** With `COc1ccc(C(CN(C)C)C2(O)CCCCC2)cc1` (single isomer, unassigned; (+)) [Example 6, (+)-Isomer of Venlafaxine Besylate] as the molecule, how does the hygroscopicity [1] read?
**A.** The hygroscopicity was “less hygroscopic”.

**Q.** For `COc1ccc(C(CN(C)C)C2(O)CCCCC2)cc1` (single isomer, unassigned; (-)) [Example 5, (−)-Isomer of Venlafaxine Besylate], which hygroscopicity [1] is on record?
**A.** Its hygroscopicity is “less hygroscopic”.

**Q.** With `COc1ccc(C(CN(C)C)C2(O)CCCCC2)cc1` (centres unmarked) [Example 4B, Amorphous Venlafaxine Besylate] as the molecule, how does the “water present after exposure to air (Karl-Fischer)” value ([2]; exposed to air for 13 days) read?
**A.** The value was 1 equivalent of water.

**Q.** Which “water present after exposure to air (Karl-Fischer)” value ([2]; exposed to air for 13 days at room temperature) does the source give for `COc1ccc(C(CN(C)C)C2(O)CCCCC2)cc1` (centres unmarked) [Example 4D, Less hydrated Venlafaxine Besylate] here?
**A.** The value was 1 molar equivalent of water.
